The text below walks through data of US8962608B2, “Cycloalkylnitrile pyrazole carboxamides as janus kinase inhibitors” (Merck Sharp & Dohme Corp., priority 2011, dated 2015).

For experiment [1], the target named is JAK1 (recombinant purified GST-tagged catalytic domain) (Homo sapiens (Human), UniProt P23458). Put plainly: biochemical.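 Note: biochemical assay with HTRF read-out.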
The target in experiment [2] is JAK2 (recombinant purified GST-tagged catalytic domain) (Homo sapiens (Human), UniProt O60674). Put plainly: biochemical.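 Note: biochemical JAK kinase assay with HTRF detection.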
JAK2 (recombinant purified GST-tagged catalytic domain), sequence (O60674 849-1124): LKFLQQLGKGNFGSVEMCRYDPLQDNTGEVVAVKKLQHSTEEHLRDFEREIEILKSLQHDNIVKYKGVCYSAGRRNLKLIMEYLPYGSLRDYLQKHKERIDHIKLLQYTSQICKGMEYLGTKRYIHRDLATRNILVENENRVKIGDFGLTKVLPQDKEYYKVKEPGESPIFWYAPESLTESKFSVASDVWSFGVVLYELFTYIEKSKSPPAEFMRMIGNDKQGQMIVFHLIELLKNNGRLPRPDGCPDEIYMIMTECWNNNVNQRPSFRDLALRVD

Structures are written as SMILES.

JAK1 (recombinant purified GST-tagged catalytic domain), sequence (P23458 875-1153): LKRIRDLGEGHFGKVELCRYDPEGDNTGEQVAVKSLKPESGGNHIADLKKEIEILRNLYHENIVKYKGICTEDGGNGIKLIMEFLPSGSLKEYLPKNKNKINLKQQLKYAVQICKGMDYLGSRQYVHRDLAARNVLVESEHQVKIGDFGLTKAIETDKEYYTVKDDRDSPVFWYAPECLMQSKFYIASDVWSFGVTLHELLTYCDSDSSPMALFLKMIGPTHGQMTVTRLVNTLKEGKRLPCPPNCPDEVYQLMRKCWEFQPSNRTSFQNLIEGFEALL

Regarding `N#C[C@H]1C[C@H](N(CC2CC2)CC2CC2)CC[C@@H]1n1cc(C(N)=O)c(Nc2ccc(C(F)(F)F)cc2)n1` (single isomer, unassigned) [Example 30-15, l-{(1S,2S,4R or 1R,2R,4S)-4-[bis(cyclopropylmethyl)amino]-2-cyanocyclohexyl}-3-{[4-(trifluoromethyl)phenyl]amino}-1H-pyrazole-4-carboxamide], the IC50 in experiment [1] is 260 nM; in experiment [2], greater than 1500 nM.

For `N#C[C@@H]1C[C@@H](NCC2CCC2)CC[C@H]1n1cc(C(N)=O)c(Nc2ccc(C(F)(F)F)cc2)n1` (single isomer, unassigned) [Example 30-16, 1-{(1R,2R,4S or 1S,2S,4R)-2-cyano-4-[(cyclobutyl-methyl)amino]cyclohexyl}-3-{[4-(trifluoro-methyl)phenyl]amino}-1H-pyrazole-4-carboxamide], the IC50 in experiment [1] amounted to 2 nM; in experiment [2], 242 nM.

`N#C[C@@H]1C[C@@H](NC2COC2)CC[C@H]1n1cc(C(N)=O)c(Nc2ccc(C(F)(F)F)cc2)n1` (single isomer, unassigned) [Example 30-17, 1-[(1R,2R,4S or 1S,2S,4R)-2-cyano-4-(oxetan-3-ylamino)cyclohexyl]-3-{[4-(trifluoromethyl)phenyl]amino}-1H-pyrazole-4-carboxamide]: the values for the IC50 in experiment [1] and in experiment [2] were 0.85 nM and 17 nM, respectively.

As to `N#C[C@@H]1C[C@@H](NC2CCC2)CC[C@H]1n1cc(C(N)=O)c(Nc2ccc(C(F)(F)F)cc2)n1` (single isomer, unassigned) [Example 30-18, 1-[(1R,2R,4S or 1S,2S,4R)-2-cyano-4-(cyclobutyl-amino)cyclohexyl]-3-{[4-(trifluoromethyl)phenyl]amino}-1H-pyrazole-4-carboxamide], the results for the 50% inhibitory concentration (IC50) in experiment [1] and in experiment [2] were 2 nM and 136 nM, respectively.

Take `C[N+]1([C@H]2CC[C@H](n3cc(C(N)=O)c(Nc4ccc(C(F)(F)F)cc4)n3)[C@@H](C#N)C2)CCC1` (single isomer, unassigned) [Example 31-1, 1-((1S,3S,4S or 1R,3R,4R)-4-(4-carbamoyl-3-((4-(trifluoromethyl)phenyl)amino)-1H-pyrazol-1-yl)-3-cyanocyclohexyl)-1-methylazetidin-1-ium 2,2,2-trifluoroacetate]: the 50% inhibitory concentration (IC50) came out at 0.3 nM in experiment [1] and 33 nM in experiment [2].

Regarding `N#C[C@H]1C[C@@](O)(C2CC2)CC[C@@H]1n1cc(C(N)=O)c(Nc2ccc(Cl)c(F)c2)n1` (single isomer, unassigned) [Example 32-1, 3-[(4-Chloro-3-fluorophenyl)amino]-1-[(1S,2S,4S or 1R,2R,4R)-2-cyano-4-cyclopropyl-4-hydroxycyclohexyl]-1H-pyrazole-4-carboxamide], the figures for the half-maximal inhibitory concentration (IC50) in experiment [1] and in experiment [2] were 13 nM and 59 nM, respectively.

With `N#C[C@H]1C[C@@H](O)CC[C@@H]1n1cc(C(N)=O)c(Nc2ccc(OC(F)(F)F)cc2)n1` (single isomer, unassigned) [Example 33-1, 1-((1S,2S,4S or 1R,2R,4R)-2-Cyano-4-hydroxycyclohexyl)-3-((4-(trifluoromethoxy)phenyl)amino)-1H-pyrazole-4-carboxamide], the 50% inhibitory concentration (IC50) stood at 0.5 nM in experiment [1] and 5 nM in experiment [2].

In the case of `N#C[C@H]1C[C@@H](O)CC[C@@H]1n1cc(C(N)=O)c(Nc2ccc(C(F)(F)F)cc2)n1` (single isomer, unassigned) [Example 33-4, 1-[(1S,2S,4S or 1R,2R,4R)-2-cyano-4-hydroxycyclohexyl]-3-{[4-(trifluoromethyl)phenyl]amino}-1H-pyrazole-4-carboxamide], the values for the concentration for half-maximal inhibition (IC50) in experiment [1] and in experiment [2] were 5 nM and 90 nM, respectively.

For `N#Cc1ccc(Nc2nn([C@H]3CC[C@H](O)C[C@@H]3C#N)cc2C(N)=O)cc1` (single isomer, unassigned) [Example 33-6, 1-[(1S,2S,4S or 1R,2R,4R)-2-cyano-4-hydroxycyclohexyl]-3-[(4-cyanophenyl)amino]-1H-pyrazole-4-carboxamide], the IC50 in experiment [1] turned out to be 0.5 nM; in experiment [2] it was 3 nM.

Consider `N#C[C@H]1C[C@@H](O)CC[C@@H]1n1cc(C(N)=O)c(Nc2ccc(C(F)F)nc2)n1` (single isomer, unassigned) [Example 33-8, 1-[(1S,2S,4S or 1R,2R,4R)-2-cyano-4-hydroxycyclohexyl)-3-{I6-(difluoromethyl)pyridin-3-yl]amino}-1H-pyrazole-4-carboxamide], for which the IC50 came out at 8 nM in experiment [1] and 33 nM in experiment [2].

As to `N#C[C@H]1C[C@@H](O)CC[C@@H]1n1cc(C(N)=O)c(Nc2ccc(C(F)(F)F)nc2)n1` (single isomer, unassigned) [Example 33-9, 1-[(1S,2S,4S or 1R,2R,4R)-2-cyano-4-hydroxycyclohexyl]-3-{[6-(trifluoromethyl)pyridin-3-yl]amino}-1H-pyrazole-4-carboxamide], the half-maximal inhibitory concentration (IC50) came to 21 nM in experiment [1] and 65 nM in experiment [2].

Regarding `N#C[C@H]1C[C@@H](O)CC[C@@H]1n1cc(C(N)=O)c(Nc2ccc([C@H](O)C(F)(F)F)cc2)n1` (single isomer, unassigned) [Example 33-10, 1-[(1S,2S,4S or 1R,2R,4R)-2-cyano-4-hydroxycyclohexyl]-3-({4-[(1S)-2,2,2-trifluoro-1-hydroxyethyl]phenyl}amino)-1H-pyrazole-4-carboxamide], the IC50 in experiment [1] was determined as 0.3 nM; in experiment [2] it was 2 nM.

With `N#C[C@H]1C[C@@H](O)CC[C@@H]1n1cc(C(N)=O)c(Nc2ccc([C@@H](O)C(F)(F)F)cc2)n1` (single isomer, unassigned) [Example 33-11, 1-[(1S,2S,4S or 1R,2R,4R)-2-cyano-4-hydroxycyclohexyl]-3-({4-[(1R or 1S)-2,2,2-trifluoro-1-hydroxyethyl]phenyl}amino)-1H-pyrazole-4-carboxamide], the IC50 in experiment [1] is 0.45 nM; in experiment [2], 3 nM.

Turning to `CC(C)(c1ccc(Nc2nn([C@H]3CC[C@H](O)C[C@@H]3C#N)cc2C(N)=O)cc1)C(O)C(F)(F)F` (single isomer, unassigned) [Example 33-15, 1-[(1S,2S,4S or 1R,2R,4R)-2-cyano-4-hydroxycyclohexyl]-3-{[4-(3,3,3-trifluoro-(2R or 2S)-hydroxy-1,1-dimethylpropyl)phenyl]amino}-1H-pyrazole-4-carboxamide], the IC50 in experiment [1] was 0.5 nM; in experiment [2] it was 2 nM.

Turning to `CC(C)(c1ccc(Nc2nn([C@H]3CC[C@H](O)C[C@@H]3C#N)cc2C(N)=O)cc1)C(O)C(F)(F)F` (single isomer, unassigned) [Example 33-16, 1-[(1S,2S,4S or 1R,2R,4R)-2-cyano-4-hydroxycyclohexyl]-3-{[4-(3,3,3-trifluoro-(2R or 2S)-hydroxy-1,1-dimethylpropyl)phenyl]amino}-1H-pyrazole-4-carboxamide], the IC50 in experiment [1] worked out at 0.7 nM; in experiment [2], 3 nM.

For `N#C[C@H]1C[C@@H](O)CC[C@@H]1n1cc(C(N)=O)c(Nc2ccc(Cl)c(Cl)c2)n1` (single isomer, unassigned) [Example 33-20, 1-[(1S,2S,4S or 1R,2R,4R)-2-cyano-4-hydroxycyclohexyl]-3-[(3,4-dichlorophenyl)amino]-1H-pyrazole-4-carboxamide], the half-inhibitory concentration (IC50) worked out at 2 nM in experiment [1] and 20 nM in experiment [2].

In general, IC50 refers to the point on the concentration scale where inhibition reaches its midpoint.
